According to patent US8901118B2, “Compounds and methods for kinase modulation, and indications therefor” (Plexxikon Inc., priority 2010, dated 2014):

Tests used:
[1] = test system: MV-4-11 cells; assay: MV-4-11 (leukemia) cell proliferation assay (ATPlite); type: cell-based; details: Homo sapiens, MV4-11, read-out: Inhibition of Cell Proliferation IC50, MV-4-11
Protocol: Compounds are assessed in a variety of cell based assays. For example BaF3 cells engineered with any of BCR-FMS, BCR-KIT, BCR-FLT3, BCR-NTRK1, BCR-NTRK2, and BCR-NTRK3, are used in cell proliferation assays to assess inhibitory activity of Fms, Kit, Flt-3, TrkA, TrkB, and TrkC, respectively. An MV-4-11 (leukemia) cell proliferation assay is used to assess inhibitory activity in Flt-3, and SKNSH (human neuroblastoma) cell proliferation assay is used to assess efficacy of Fms/Trk inhibitors. Additional cells may be assayed similarly to assess the efficacy of Fms/Trk inhibitors, such as MiaPaCa (human pancreatic cancer) and Capan-1 (human pancreatic carcinoma) cells. Reagent and assay conditions are as follows: • BaF3 cells: • Maintained in RPMI containing 10% FBS, 1% PenStrep, 1% NEAA, and 1% L-Glutamine, supplemented with 1 mg/mL G418 and 5% WEHI-CM (or recombinant murine IL-3). • Confluent cells are split 1:50 to 1:100 every 3-4 days. • MV-4-11 cells: • Maintained in Iscove's Modified Dulbecco's Medium containing 10% FBS. • Confluent cells are split 1:4 every 3-4 days. • SKNSH cells: RPMI containing 10% FBS. On day 1, cells are counted, then centrifuged in a conical tube for 5 minutes at 1000 rpm. The supernatant is removed and cells are re-suspended as follows: • BaF3: resuspend in growth media +1 mg/mL G418 (without WEHFIL-3) to 2×10^5 cells/mL. • MV-4-11: resuspend in growth media to 5×10^5 cells/mL. • SKNSH: resuspend in growth media to 2×10^4 cells/mL. The cells are plated (50 μL, 150 μL for SKNSH cells) in each well of a 96-well dish (Corning 3610) and incubated at 37° C. in 5% CO2 overnight, cells plated to a final concentration of cells as follows: • BaF3: 10,000 cells per well. • MV-4-11: 25,000 cells per well. • SKNSH: 3,000 cells per well. On day 2, compound at a maximum concentration of 5 mM is serially diluted 1:3 for a total of 8 point titration with DMSO as a control. A 1 μL aliquot of each dilution point is added to 249 μL growth media and 50 μL is added to a well containing cells, providing 10 μM compound for the maximum concentration point. The cells are incubated for 3 days at 37° C. in 5% CO2. For SKNSH cells, a 0.75 μL aliquot of appropriate dilution in DMSO is added to 150 μL of cells. On day 5, ATPlite 1 step Luminescence Assay System (Perkin Elmer #6016739) is brought to room temperature along with the cell cultures. ATPlite is added to each well as follows: • BaF3: 25 μL per well. • MV-4-11: 40 μL per well. • SKNSH: 20 μL per well. The cells are incubated at room temperature for 10 minutes, then luminescence is read on Safire reader. The measured luminescence correlates directly with cell number, such that the reading as a function of compound concentration is used to determine the IC50 value.
It is understood that the results of these assays may vary as assay conditions are varied. Inhibition levels determined under the conditions described herein represent a relative activity for the compounds tested under the specific conditions employed. The cell based assays are likely to show variability due to the complexity of the system and the sensitivity thereof to any changes in the assay conditions. […] Results for compounds that are tested and show substantially no inhibition below the highest tested concentration are represented as “-” in the tables below. In some instances, the compounds were not tested in all of the assays, or assay results were not valid, as indicated by NA in the tables below.

[2] = biological target: CYP3A4(BQ) (Homo sapiens, UniProt P08684); assay: CYP3A4(BQ) inhibition; type: in vitro ADME; details: CYP3A4, substrate BQ; read-out: Cyp IC50 3A4(BQ)
Chain of CYP3A4(BQ) (P08684 whole entry): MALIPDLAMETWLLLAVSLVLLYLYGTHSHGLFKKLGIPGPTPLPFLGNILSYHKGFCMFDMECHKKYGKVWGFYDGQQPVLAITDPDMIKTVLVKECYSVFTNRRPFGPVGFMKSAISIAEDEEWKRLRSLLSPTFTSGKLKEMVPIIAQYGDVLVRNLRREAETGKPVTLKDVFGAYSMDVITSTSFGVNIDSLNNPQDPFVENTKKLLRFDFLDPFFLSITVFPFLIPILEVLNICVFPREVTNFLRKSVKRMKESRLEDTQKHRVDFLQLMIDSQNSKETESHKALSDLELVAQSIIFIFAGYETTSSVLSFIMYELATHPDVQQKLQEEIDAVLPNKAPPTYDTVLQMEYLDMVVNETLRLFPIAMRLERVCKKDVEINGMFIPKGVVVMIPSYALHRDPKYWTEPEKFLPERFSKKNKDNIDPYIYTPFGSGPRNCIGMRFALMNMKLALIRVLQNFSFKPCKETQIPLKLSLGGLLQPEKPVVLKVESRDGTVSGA
Method in brief: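 After 30 min incubation at 37° C, plates were read on a Tecan Safire 2 at 409 ex/460 em, and IC50 values came from signal plotted against compound concentration. Enzyme and substrate were sourced from BD Biosciences. The cofactor mix held 1.3% NADPH Regeneration system Solution A, 1.04% Solution B, 5% acetonitrile and 0.05% DMSO.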

| Compound | IC50 [1] [µM] | IC50 [2] [µM] |
| --- | --- | --- |
| CCOc1ccc(Nc2ccc(Cc3c[nH]c4ncnc(C)c34)c(F)n2)cn1 [Compound P-4006, (6-Ethoxy-pyridin-3-yl)-[6-fluoro-5-(4-methyl-7H-pyrrolo[2,3-d]pyrimidin-5-ylmethyl)-pyridin-2-yl]-amine] | < 0.1 | > 10 |
| COc1ncnc2[nH]cc(Cc3ccc(Nc4ccc(C)nc4)nc3F)c12 [Compound P-4010, [6-Fluoro-5-(4-methoxy-7H-pyrrolo[2,3-d]pyrimidin-5-ylmethyl)-pyridin-2-yl]-(6-methyl-pyridin-3-yl)-amine] | < 1 | > 10 |
| CCn1cc(Nc2ccc(Cc3c[nH]c4ncnc(OC)c34)c(F)n2)cn1 [Compound P-4011, (1-Ethyl-1H-pyrazol-4-yl)-[6-fluoro-5-(4-methoxy-7H-pyrrolo[2,3-d]pyrimidin-5-ylmethyl)-pyridin-2-yl]-amine] | < 1 | > 10 |
| CCc1ccc(Nc2ccc(Cc3c[nH]c4ncnc(OCCOC)c34)c(F)n2)cn1 [Compound P-4016, (6-Ethyl-pyridin-3-yl)-{6-fluoro-5-[4-(2-methoxy-ethoxy)-7H-pyrrolo[2,3-d]pyrimidin-5-ylmethyl]-pyridin-2-yl}-amine] | < 0.1 | > 10 |
| CCOc1ncnc2[nH]cc(Cc3ccc(Nc4ccc(C)nc4)nc3F)c12 [Compound P-4017, [5-(4-Ethoxy-7H-pyrrolo[2,3-d]pyrimidin-5-ylmethyl)-6-fluoro-pyridin-2-yl]-(6-methyl-pyridin-3-yl)-amine] | < 1 | > 10 |
| CCOc1ncnc2[nH]cc(Cc3ccc(Nc4ccc(OC)nc4)nc3F)c12 [Compound P-4018, [5-(4-Ethoxy-7H-pyrrolo[2,3-d]pyrimidin-5-ylmethyl)-6-fluoro-pyridin-2-yl]-(6-methoxy-pyridin-3-yl)-amine] | < 1 | > 10 |
| COCCOc1ncnc2[nH]cc(Cc3ccc(Nc4ccc(OC)nc4)nc3F)c12 [Compound P-4019, {6-Fluoro-5-[4-(2-methoxy-ethoxy)-7H-pyrrolo[2,3-d]pyrimidin-5-ylmethyl]-pyridin-2-yl}-(6-methoxy-pyridin-3-yl)-amine] | < 1 | > 10 |

Next, values leading:

| IC50 [1] [µM] | IC50 [2] [µM] | Compound |
| --- | --- | --- |
| < 1 | > 10 | CCOc1ccc(Nc2ccc(Cc3c[nH]c4ncnc(OC)c34)c(F)n2)cn1 [Compound P-4005, (6-Ethoxy-pyridin-3-yl)-[6-fluoro-5-(4-methoxy-7H-pyrrolo[2,3-d]pyrimidin-5-ylmethyl)-pyridin-2-yl]-amine] |
| < 1 | > 10 | CCc1ccc(Nc2ccc(Cc3c[nH]c4ncnc(OC)c34)c(F)n2)cn1 [Compound P-4007, (6-Ethyl-pyridin-3-yl)-[6-fluoro-5-(4-methoxy-7H-pyrrolo[2,3-d]pyrimidin-5-ylmethyl)-pyridin-2-yl]-amine] |
| < 0.1 | > 10 | CCOc1ccc(Nc2ccc(Cc3c[nH]c4ncnc(OCCOC)c34)c(F)n2)cn1 [Compound P-4008, (6-Ethoxy-pyridin-3-yl)-{6-fluoro-5-[4-(2-methoxy-ethoxy)-7H-pyrrolo[2,3-d]pyrimidin-5-ylmethyl]-pyridin-2-yl}-amine] |
| < 0.1 | > 10 | CCc1ccc(Nc2ccc(Cc3c[nH]c4ncnc(C)c34)c(F)n2)cn1 [Compound P-4009, (6-Ethyl-pyridin-3-yl)-[6-fluoro-5-(4-methyl-7H-pyrrolo[2,3-d]pyrimidin-5-ylmethyl)-pyridin-2-yl]-amine] |
| < 1 | > 10 | CCOc1ncnc2[nH]cc(Cc3ccc(Nc4cnn(CC)c4)nc3F)c12 [Compound P-4012, [5-(4-Ethoxy-7H-pyrrolo[2,3-d]pyrimidin-5-ylmethyl)-6-fluoro-pyridin-2-yl]-(1-ethyl-1H-pyrazol-4-yl)-amine] |
| < 1 | > 10 | CCn1cc(Nc2ccc(Cc3c[nH]c4ncnc(C)c34)c(F)n2)cn1 [Compound P-4013, (1-Ethyl-1H-pyrazol-4-yl)-[6-fluoro-5-(4-methyl-7H-pyrrolo[2,3-d]pyrimidin-5-ylmethyl)-pyridin-2-yl]-amine] |
| < 1 | > 10 | CCn1cc(Nc2ccc(Cc3c[nH]c4ncnc(OCCOC)c34)c(F)n2)cn1 [Compound P-4014, (1-Ethyl-1H-pyrazol-4-yl)-{6-fluoro-5-[4-(2-methoxy-ethoxy)-7H-pyrrolo[2,3-d]pyrimidin-5-ylmethyl]-pyridin-2-yl}-amine] |
| < 1 | > 10 | COCCOc1ncnc2[nH]cc(Cc3ccc(Nc4ccc(C)nc4)nc3F)c12 [Compound P-4015, {6-Fluoro-5-[4-(2-methoxy-ethoxy)-7H-pyrrolo[2,3-d]pyrimidin-5-ylmethyl]-pyridin-2-yl}-(6-methyl-pyridin-3-yl)-amine] |
